Publication PMC7647782, “Cytotoxic, Antioxidant, and Metabolic Enzyme Inhibitory Activities of Euphorbia cyparissias Extracts” (Oxidative Medicine and Cellular Longevity, 2020)
In brackets after ≈: the same amount, converted by molar mass.

How the values were obtained:
β-glucosidase = assay: β-Glucosidase activity inhibition; type: biochemical
Procedure: [20], respectively. […] The enzymes β-glucosidase, α-amylase, and XO were purchased from Sigma-Aldrich (St. Louis, MO, USA). The β-glucosidase activity was determined by measuring the 4-nitrophenol […] (4-NPGP) product. […] Then, the mixture was incubated with color reagent NPGP (180 μL) for more 15 min at 37°C. […] The activity was evaluated by measuring absorbance at 405 nm with a microplate reader. The same equation used to measure α-amylase activity was used to measure that of β-glucosidase.

[1] = DPPH radical scavenging assay
Procedure: In every sample of E. cyparissias extract, the antioxidant activity was evaluated by using the DPPH radical scavenging and reducing power assays as previously described in the literature. To measure DPPH activity, a sample of 0.5 mL for each concentration was mixed with an equal volume of DPPH ethanolic solution and incubated in darkness for 1 h at ambient temperature. The activity was determined by comparing the absorbance at 519 nm of DPPH radicals to that of the control (containing all reagents except the extract).

SPLA2-IB = assay: Phospholipase activity inhibition, stingray PLA2-IB; type: biochemical; settings: stingray group IB phospholipase
Procedure: The phospholipase activities were measured based on the De Araújo and Radvanyi method [24]. The inhibitory effect of various extracts was determined using samples of dromedary, stingray, and porcine digestive group IB phospholipases (PLA2-IB). A 10 μL sample of ethanolic or aqueous extract was mixed with 10 μL of PLA2-GIB and preincubated for 20 min at room temperature. The mixture was added to 1 mL of the substrate, which was composed of lecithin (3.5 mM) solubilized in 100 mM NaCl, 3 mM sodium taurodeoxycholate, 10 mM CaCl2, and 0.055 mM red phenol at a pH of 7.6. […] The inhibition percentage was calculated by measuring residual activity compared to negative control assay (absence of extract). The IC50 values were determined from the curve.
Values represent the mean ± SD of triplicate measurements.

dromedary lipase (DrPL) = assay: Lipase activity inhibition, dromedary lipase; type: biochemical; settings: mean ± SD of triplicate
From the text: Dromedary (DrPlA2-IB), porcine (PPPlA2-IB), and stingray group IB phospholipases (SPLA2-IB) were purified and prepared as described in our previous works and De Haas et al., respectively. Dromedary (DrPL), stingray (SPL), and porcine (PPL) lipases were also purified according to protocols optimized in previous works. The enzymes β-glucosidase, α-amylase, and XO were purchased from Sigma-Aldrich (St. Louis, MO, USA).
The inhibitory effect of ethanolic and aqueous extracts of E. cyparissias on dromedary, stingray, and porcine lipase activities were investigated at different concentrations ranging from 0 to 100 μg/mL. The assay was carried out by incubating 12 IU of enzymes (50 μL) with 10 μL of extract. A positive control using commercial orlistat (Xenical, Hoffmann-La Roche) was run in parallel in the same conditions. Inhibition of lipase activities was expressed as the percentage of residual activity after incubation with Euphorbia extracts compared to the negative control ([…]). Lipase activities were measured using tributyrin as a substrate under the optimal conditions for each enzyme, as previously described. The IC50 values correspond to the half maximal inhibitory concentration.
The activities of these lipases were measured using the pH-stat technique on olive oil emulsion at optimal conditions for enzyme activity. […]

chymotrypsin = chymotrypsin (Bos taurus, UniProt P00766); assay: Protease activity inhibition, chymotrypsin; type: biochemical; settings: unit as in head of Table 4
Procedure: (§1) The trypsin and chymotrypsin activity inhibition was performed as described by Kunitz. An aliquot of 1 mL of ethanolic or water extract was incubated for 15 min at 37°C with an equal volume of the enzyme. The mixture was then incubated for 30 min at 37°C with 2 mL of 2% casein as the substrate. The reaction was stopped by adding 2.5 mL of 5% trichloroacetic acid (TCA). The activity was determined by measuring the absorbance of the mixture at 280 nm, after 15 min of centrifugation at 15 000 rpm. Ethanol was used as a negative control and Bowman-Birk Inhibitor (BBI) as a positive control. The protease activity inhibition was also expressed as inhibition percentage, which was determined by comparing the results with those of a control experiment.

trypsin = target: T1, trypsin (Bos taurus, UniProt P00760); assay: Protease activity inhibition, trypsin; type: biochemical; settings: unit as in head of Table 4
T1 construct: gene PRSS1
T1 sequence (P00760 24-246): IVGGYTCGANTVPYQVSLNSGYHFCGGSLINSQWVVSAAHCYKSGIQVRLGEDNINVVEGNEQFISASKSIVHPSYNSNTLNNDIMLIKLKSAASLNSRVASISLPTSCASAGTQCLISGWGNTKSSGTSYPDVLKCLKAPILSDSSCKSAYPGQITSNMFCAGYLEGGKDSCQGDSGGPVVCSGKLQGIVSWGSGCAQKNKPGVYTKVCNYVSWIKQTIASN
Procedure: as §1

Molecule: C[C@H]1O[C@H](O[C@H]2[C@H](O)[C@@H](O)[C@@H](O[C@H]3[C@H](O)[C@@H](O)C(O)O[C@@H]3CO)O[C@@H]2CO)[C@H](O)[C@@H](O)[C@@H]1N[C@H]1C=C(CO)[C@@H](O)[C@H](O)[C@H]1O (stereo partly shown) [Acarbose]
- IC50 β-Glucosidase (β-glucosidase): 26.2 ± 2.5 µg/mL (≈ 40.6 µM)

Molecule: Cc1cc(C(C)(C)C)c(O)c(C(C)(C)C)c1 [BHT, butylated hydroxytoluene]
- DPPH scavenging activity ([1]; at a concentration of 1 mg/mL): 95.3 ± 0.4%
- DPPH IC50 ([1]; from Figure 5(b), unit as printed for BHT): ~54 µg/mL

Molecule: CC1(C)CC[C@]2(C(=O)O)CC[C@]3(C)C(=CC[C@@H]4[C@@]5(C)CC[C@H](O)C(C)(C)[C@@H]5CC[C@]43C)[C@@H]2C1 [Oleanolic acid, oleanolic acid]
- IC50 SPLA2-IB (SPLA2-IB): 82.8 ± 5.7 µg/mL (≈ 181 µM)

Molecule: CCCCCCCCCCC[C@@H](C[C@@H]1OC(=O)[C@H]1CCCCCC)OC(=O)[C@H](CC(C)C)NC=O [Orlistat, orlistat]
- IC50 DrPL (dromedary lipase (DrPL)): 97.2 ± 2.5 µg/mL (≈ 196 µM)

Molecule: BBI: Bowman-Birk Inhibitor, positive control for trypsin and chymotrypsin inhibition
- IC50 Chymotrypsin (chymotrypsin): 0.0108 ± 0.0004 µg/mL

B1: BBI: Bowman-Birk Inhibitor, positive control for trypsin and chymotrypsin inhibition (protein)
chain: DDESSKPCCDQCACTKSNPPQCRCSDMRLNSCHSACKSCICALSYPAQCFCVDITDFCYEPCKPSEDDKEN
modifications: seven intrachain disulfides; Check residues are the known reactive sites Lys16 and Leu43 in mat
- IC50 Trypsin (trypsin): 0.0115 ± 0.0004 µg/mL
